In ChEMBL document CHEMBL1201862, “PubChem BioAssay data set” (2004):
Where “and” joins values, the source holds several entries; their conditions need not be identical. Identical values can stand only once.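 Test compounds were applied to cells in 96-well plates for 48 hours at 5 doses. GI50 = concentration required for 50% inhibition of growth.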 Calls of active or inactive are those of the source. No stated cut-off is given here; in the data, active = GI50 up to about 1.1 µM and inactive = higher.

Assays:
Assay in all cases: growth of human tumour cells (NCI), 48 h
HCC 2998 = tested on: HCC 2998
SNB-75 = tested on: SNB-75
U-251 = tested on: U-251
RPMI-8226 = tested on: RPMI-8226
A549 = tested on: A549
UACC-62 = tested on: UACC-62
SW-620 = tested on: SW-620
ACHN = tested on: ACHN
NCI-H522 = tested on: NCI-H522
SNB-19 = tested on: SNB-19
NCI-H460 = tested on: NCI-H460
K562 = tested on: K562
UACC-257 = tested on: UACC-257
KM12 = tested on: KM12
HCT-116 = tested on: HCT-116
OVCAR-3 = tested on: OVCAR-3
HOP-92 = tested on: HOP-92
COLO 205 = tested on: COLO 205
MCF7 = tested on: MCF7

O=C(O)/C=C/c1ccc(O)c(O)c1 [CAFFEIC ACID]
GI50 (HCC 2998): > 100 µM (inactive)
GI50 (SNB-75): > 24 µM (inactive)
GI50 (U-251): > 100 µM (inactive)
GI50 (RPMI-8226): > 100 µM (inactive)
GI50 (A549): > 100 µM (inactive)
GI50 (UACC-62): > 100 µM (inactive)
GI50 (SW-620): > 43.3 µM (inactive)
GI50 (ACHN): > 100 µM (inactive)
GI50 (NCI-H522): 97.5 µM (inactive)
GI50 (SNB-19): > 100 µM (inactive)
GI50 (NCI-H460): > 100 µM (inactive)
GI50 (K562): > 100 µM (inactive)
GI50 (UACC-257): > 100 µM (inactive)
GI50 (KM12): > 100 µM (inactive)
GI50 (HCT-116): > 100 µM (inactive)
GI50 (OVCAR-3): > 100 µM (inactive)
GI50 (HOP-92): > 100 µM (inactive)
GI50 (COLO 205): > 100 µM (inactive)

CCOC(=O)NC1C2CC(=O)OC(O2)C1OC(C)=O (configuration not stated)
GI50 (HCC 2998): > 100 µM (inactive)
GI50 (SNB-75): > 100 µM (inactive)
GI50 (U-251): > 100 µM (inactive)
GI50 (RPMI-8226): > 100 µM (inactive)
GI50 (A549): > 100 µM (inactive)
GI50 (UACC-62): > 100 µM (inactive)
GI50 (SW-620): > 100 µM (inactive)
GI50 (ACHN): > 100 µM (inactive)
GI50 (NCI-H522): > 100 µM (inactive)
GI50 (SNB-19): > 100 µM (inactive)
GI50 (NCI-H460): > 100 µM (inactive)
GI50 (K562): > 100 µM (inactive)
GI50 (UACC-257): > 100 µM (inactive)
GI50 (KM12): > 100 µM (inactive)
GI50 (HCT-116): > 100 µM (inactive)
GI50 (OVCAR-3): > 100 µM (inactive)
GI50 (HOP-92): > 100 µM (inactive)
GI50 (COLO 205): > 100 µM (inactive)

CCCCCCCCCCCCCC(=O)O[C@H]1CC[C@H](NC(=O)[C@H](OC)[C@H](O)[C@@H](O)[C@H](O)/C=C/C(C)C)C(=O)N(C)C1 [BENGAMIDE B]
GI50 (HCC 2998): 0.00195 µM (active)
GI50 (SNB-75): 0.105 µM (active)
GI50 (U-251): 0.00286 µM (active)
GI50 (RPMI-8226): 0.0895 µM (active)
GI50 (A549): < 0.0015 µM (active)
GI50 (UACC-62): 0.00807 µM (active)
GI50 (SW-620): 0.00433 µM (active)
GI50 (ACHN): 0.00261 µM (active)
GI50 (NCI-H522): 0.00577 µM (active)
GI50 (SNB-19): 0.008 µM (active)
GI50 (NCI-H460): < 0.0015 µM (active)
GI50 (K562): 0.00811 µM (active)
GI50 (UACC-257): 0.0331 µM (active)
GI50 (KM12): 0.00418 µM (active)
GI50 (HCT-116): 0.00247 µM (active)
GI50 (OVCAR-3): 0.00643 µM (active)
GI50 (HOP-92): 0.00684 µM (active)
GI50 (COLO 205): 0.00259 µM (active)

CC(=O)O[C@H]1C(=O)N(c2cc3c4ccccc4ccc3c3ccccc23)[C@@H]1c1ccccc1
GI50 (HCC 2998): 5.04 µM (inactive)
GI50 (SNB-75): 2 µM (inactive)
GI50 (U-251): 7.33 µM (inactive)
GI50 (MCF7): 3.13 µM (inactive)
GI50 (RPMI-8226): 2.23 µM (inactive)
GI50 (A549): 4.56 µM (inactive)
GI50 (UACC-62): 3.15 µM (inactive)
GI50 (ACHN): 6.38 µM (inactive)
GI50 (SNB-19): 6.79 µM (inactive)
GI50 (NCI-H460): 4.31 µM (inactive)
GI50 (K562): 4.8 µM (inactive)
GI50 (UACC-257): 4.09 µM (inactive)
GI50 (KM12): 2.9 µM (inactive)
GI50 (HCT-116): 3.21 µM (inactive)
GI50 (OVCAR-3): 1.71 µM (inactive)
GI50 (HOP-92): 17.5 µM (inactive)
GI50 (COLO 205): 4.24 µM (inactive)

CC1(C)NC(C(=O)c2ccccc2)=[N+]([O-])C1(O)c1ccccc1 (configuration not stated)
GI50 (HCC 2998): > 100 µM (inactive)
GI50 (SNB-75): > 100 µM (inactive)
GI50 (U-251): > 100 µM (inactive)
GI50 (MCF7): > 100 µM (inactive)
GI50 (RPMI-8226): > 100 µM (inactive)
GI50 (A549): > 100 µM (inactive)
GI50 (UACC-62): > 100 µM (inactive)
GI50 (SW-620): > 100 µM (inactive)
GI50 (ACHN): > 100 µM (inactive)
GI50 (SNB-19): > 100 µM (inactive)
GI50 (NCI-H460): > 100 µM (inactive)
GI50 (K562): > 100 µM (inactive)
GI50 (UACC-257): 54.5 µM (inactive)
GI50 (KM12): > 100 µM (inactive)
GI50 (HCT-116): 74.5 µM (inactive)
GI50 (OVCAR-3): 95.3 µM (inactive)
GI50 (HOP-92): > 100 µM (inactive)
GI50 (COLO 205): > 100 µM (inactive)

CC1=CC(=O)CC2(C)CCC(C(C)CC(=O)CC(C)C)CC12OO (configuration not stated)
GI50 (U-251): 19 µM (inactive) and 17.6 µM (inactive)
GI50 (MCF7): 16.9 µM (inactive) and 17.2 µM (inactive)
GI50 (RPMI-8226): 16.6 µM (inactive) and 12.5 µM (inactive)
GI50 (A549): 16.7 µM (inactive) and 15.4 µM (inactive)
GI50 (UACC-62): 20.8 µM (inactive) and 17.6 µM (inactive)
GI50 (SW-620): 19 µM (inactive) and 17.3 µM (inactive)
GI50 (ACHN): 17.6 µM (inactive) and 17.1 µM (inactive)
GI50 (SNB-19): > 100 µM (inactive) and 95.5 µM (inactive)
GI50 (K562): 10.9 µM (inactive) and 5.53 µM (inactive)
GI50 (UACC-257): 17.7 µM (inactive) and 17.3 µM (inactive)
GI50 (KM12): 15.6 µM (inactive) and 16.9 µM (inactive)
GI50 (HCT-116): 16.2 µM (inactive) and 16.1 µM (inactive)
GI50 (HOP-92): 15.9 µM (inactive) and 18 µM (inactive)
GI50 (COLO 205): 18.8 µM (inactive) and 14.3 µM (inactive)

C/C=C/C1(NS(=O)(=O)c2ccc(C)cc2)CCC(C(C)(C)C)CC1 (configuration not stated)
GI50 (HCC 2998): 16.2 µM (inactive)
GI50 (SNB-75): 53.6 µM (inactive)
GI50 (U-251): 16.1 µM (inactive)
GI50 (RPMI-8226): 21.6 µM (inactive)
GI50 (A549): 40.7 µM (inactive)
GI50 (UACC-62): 19 µM (inactive)
GI50 (SW-620): 26.1 µM (inactive)
GI50 (ACHN): 36.2 µM (inactive)
GI50 (NCI-H522): 11.6 µM (inactive)
GI50 (SNB-19): 42.2 µM (inactive)
GI50 (NCI-H460): 21.7 µM (inactive)
GI50 (K562): 35.5 µM (inactive)
GI50 (UACC-257): 25.4 µM (inactive)
GI50 (KM12): 20.8 µM (inactive)
GI50 (HCT-116): 20.1 µM (inactive)
GI50 (OVCAR-3): 17.7 µM (inactive)
GI50 (HOP-92): 19.7 µM (inactive)
GI50 (COLO 205): 20 µM (inactive)

Clc1ccc(-c2c(C3=NCCN3)nnn2-c2ccc(Cl)cc2)cc1
GI50 (HCC 2998): 17.1 µM (inactive)
GI50 (SNB-75): 17.8 µM (inactive)
GI50 (U-251): 20.5 µM (inactive)
GI50 (RPMI-8226): 16.7 µM (inactive)
GI50 (A549): 53.2 µM (inactive)
GI50 (UACC-62): 18.1 µM (inactive)
GI50 (SW-620): 25.9 µM (inactive)
GI50 (ACHN): 39.7 µM (inactive)
GI50 (NCI-H522): 16 µM (inactive)
GI50 (SNB-19): 29.4 µM (inactive)
GI50 (NCI-H460): 14.8 µM (inactive)
GI50 (K562): 18 µM (inactive)
GI50 (UACC-257): 18.2 µM (inactive)
GI50 (KM12): 19.8 µM (inactive)
GI50 (HCT-116): 15 µM (inactive)
GI50 (OVCAR-3): 48.9 µM (inactive)
GI50 (HOP-92): 18.2 µM (inactive)
GI50 (COLO 205): 12.6 µM (inactive)

C[C@@H](NC1CCCC[C@H]1O)c1ccccc1 (some centres not stated)
GI50 (HCC 2998): > 100 µM (inactive)
GI50 (SNB-75): 77.6 µM (inactive)
GI50 (U-251): > 100 µM (inactive)
GI50 (RPMI-8226): > 100 µM (inactive)
GI50 (A549): > 100 µM (inactive)
GI50 (UACC-62): > 100 µM (inactive)
GI50 (SW-620): > 100 µM (inactive)
GI50 (ACHN): > 100 µM (inactive)
GI50 (NCI-H522): > 100 µM (inactive)
GI50 (SNB-19): > 100 µM (inactive)
GI50 (NCI-H460): > 100 µM (inactive)
GI50 (K562): > 100 µM (inactive)
GI50 (UACC-257): > 100 µM (inactive)
GI50 (KM12): > 100 µM (inactive)
GI50 (HCT-116): > 100 µM (inactive)
GI50 (OVCAR-3): > 100 µM (inactive)
GI50 (HOP-92): > 100 µM (inactive)
GI50 (COLO 205): > 100 µM (inactive)

Cc1c2nc3ccccc3sc-2cc(=O)c1C
GI50 (HCC 2998): > 100 µM (inactive)
GI50 (SNB-75): 52.6 µM (inactive)
GI50 (U-251): 47.5 µM (inactive)
GI50 (RPMI-8226): 39.8 µM (inactive)
GI50 (A549): 48.8 µM (inactive)
GI50 (UACC-62): 15.5 µM (inactive)
GI50 (SW-620): > 90.2 µM (inactive)
GI50 (ACHN): 48.9 µM (inactive)
GI50 (NCI-H522): > 57.3 µM (inactive)
GI50 (SNB-19): > 100 µM (inactive)
GI50 (NCI-H460): 12.4 µM (inactive)
GI50 (K562): 24.3 µM (inactive)
GI50 (UACC-257): 10.3 µM (inactive)
GI50 (KM12): 76.6 µM (inactive)
GI50 (HCT-116): 12.7 µM (inactive)
GI50 (OVCAR-3): 35.3 µM (inactive)
GI50 (HOP-92): > 65.9 µM (inactive)
GI50 (COLO 205): 34.7 µM (inactive)

O=C(CC(=O)c1cccc([N+](=O)[O-])c1)C(=O)Nc1ccccc1
GI50 (HCC 2998): > 100 µM (inactive)
GI50 (SNB-75): > 100 µM (inactive)
GI50 (U-251): > 100 µM (inactive)
GI50 (RPMI-8226): > 100 µM (inactive)
GI50 (A549): > 100 µM (inactive)
GI50 (UACC-62): > 100 µM (inactive)
GI50 (SW-620): > 100 µM (inactive)
GI50 (ACHN): > 100 µM (inactive)
GI50 (NCI-H522): > 100 µM (inactive)
GI50 (SNB-19): > 100 µM (inactive)
GI50 (NCI-H460): > 100 µM (inactive)
GI50 (K562): > 100 µM (inactive)
GI50 (UACC-257): > 100 µM (inactive)
GI50 (KM12): > 100 µM (inactive)
GI50 (HCT-116): > 100 µM (inactive)
GI50 (OVCAR-3): > 100 µM (inactive)
GI50 (HOP-92): > 100 µM (inactive)
